Source: patent US10317417B2, “Buccal cell diagnosis of arrhythmogenic cardiomyopathy (ACM)” (Beth Israel Deaconess Medical Center, Inc., priority 2015, dated 2019)

Test system: cultured buccal mucosa cells from ACM patients and gene carriers
Experiment: Immunostaining of cultured buccal mucosa cells after incubation with SB216763
Type: cell-based, human
Design: dose or concentration left out as unconfirmed
Details: cultured buccal mucosa cells from ACM patients and unaffected gene carriers, confocal microscopy
Method: The oral cavity was first rinsed thoroughly with antiseptic mouthwash. Buccal mucosa cells were collected with a sterile toothbrush which was lightly scraped on the inside of both cheeks for ˜2 minutes. The oral cavity was washed with 15 ml of sterile saline which was collected in a centrifuge tube. The toothbrush itself was washed in an additional 10 ml of saline. The same process was repeated one or more times. The resultant cell suspension was centrifuged at 3000 g for 5 minutes. The pellet was washed once in sterile PBS, re-centrifuged and subsequently re-suspended in 20 ml of PBS supplemented with 5% penicillin/streptomycin and 7 mM fungizone for 30 minutes. The cells were then washed twice in PBS, reconstituted in KGM™-CD chemically defined keratinocyte growth medium (LONZA) and seeded on matrigel-coated chamber slides, where they were maintained at 37° C., 5% CO2 for up to 7 days. Selected cultures were incubated with SB216763 ([…]) for 24 hours prior to immunostaining. Buccal mucosa cultures were washed in PBS, fixed in 4% paraformaldehyde and, after being washed 3 additional times in PBS, were immunostained as described above with mouse monoclonal anti-plakoglobin (Sigma) or mouse monoclonal anti-Cx43 (Millipore) primary antibodies. All immunostained preparations were imaged at 40× using a ZEISS inverted confocal microscope.

Cn1cc(C2=C(c3ccc(Cl)cc3Cl)C(=O)NC2=O)c2ccccc21 [SB216763]
Cx43 signal distribution: normalized | plakoglobin signal distribution: normalized
